Test results as given in patent publication US20230111310A1, “CARBOXYLIC ACID DERIVATIVE-SUBSTITUTED IMINO ARYL COMPOUND, PREPARATION METHOD THEREFOR, HERBICIDAL COMPOSITION AND USE THEREOF” (Qingdao Kingagroot Chemical Compound Co., Ltd., priority 2020, published 2023).

Columns and labels:
Experiment in all cases: Weeding effect in post-emergence stage
Type in all cases: in vivo
Settings in all cases: level of fresh weight growth control rate
Abutilon theophrasti = test system: Abutilon theophrasti
In short: (§1)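 Post-emergence spray tower; 2-3 leaf plants (2 wk after sowing, soil pots, greenhouse). Formulation: acetone, Tween 80, methyl oleate EC 1.5 liter/ha as synergist, water. Rates 500–7.5 g/ha. Growth control rate read at 3 wk; n=3, averaged.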

Eleusine indica = test system: Eleusine indica
In short: as §1

Alopecurus japonicus = test system: Alopecurus japonicus
In short: as §1

Digitaria sanguinalis = test system: Digitaria sanguinalis
In short: as §1

Setaria viridis = test system: Setaria viridis
In short: as §1

Echinochloa crusgalli = test system: Echinochloa crusgalli
In short: as §1

| SMILES | Weeding effect in post-emergence stage, Abutilon theophrasti (Abutilon theophrasti; Dose 15 g/ha) | Weeding effect in post-emergence stage, Eleusine indica (Eleusine indica; Dose 15 g/ha) | Weeding effect in post-emergence stage, Alopecurus japonicus (Alopecurus japonicus; Dose 15 g/ha) | Weeding effect in post-emergence stage, Digitaria sanguinalis (Digitaria sanguinalis; Dose 15 g/ha) | Weeding effect in post-emergence stage, Setaria viridis (Setaria viridis; Dose 15 g/ha) | Weeding effect in post-emergence stage, Echinochloa crusgalli (Echinochloa crusgalli; Dose 15 g/ha) | further results |
| --- | --- | --- | --- | --- | --- | --- | --- |
| CCOC(=O)C(F)O/N=C/c1cc(-n2c(=O)cc(C(F)(F)F)n(C)c2=O)c(F)cc1Cl (stereo not drawn) [Compound 313] | 5 (Level 5: growth control rate is above 85%) | 5 (Level 5: growth control rate is above 85%) | 5 (Level 5: growth control rate is above 85%) | 5 (Level 5: growth control rate is above 85%) | 5 (Level 5: growth control rate is above 85%) | 5 (Level 5: growth control rate is above 85%) | – |
| CCC(O/N=C/c1cc(-n2c(=O)cc(C(F)(F)F)n(C)c2=O)c(F)cc1Cl)C(=O)OC (stereo not drawn) [Compound 315] | 5 (Level 5: growth control rate is above 85%) | 5 (Level 5: growth control rate is above 85%) | 5 (Level 5: growth control rate is above 85%) | 5 (Level 5: growth control rate is above 85%) | 5 (Level 5: growth control rate is above 85%) | 5 (Level 5: growth control rate is above 85%) | – |
| CCCC(O/N=C/c1cc(-n2c(=O)cc(C(F)(F)F)n(C)c2=O)c(F)cc1Cl)C(=O)OC (stereo not drawn) [Compound 316] | 5 (Level 5: growth control rate is above 85%) | 5 (Level 5: growth control rate is above 85%) | 5 (Level 5: growth control rate is above 85%) | 5 (Level 5: growth control rate is above 85%) | 5 (Level 5: growth control rate is above 85%) | 5 (Level 5: growth control rate is above 85%) | – |
| COC(=O)C(O/N=C/c1cc(-n2c(=O)cc(C(F)(F)F)n(C)c2=O)c(F)cc1Cl)C(C)C (stereo not drawn) [Compound 318] | 5 (Level 5: growth control rate is above 85%) | 5 (Level 5: growth control rate is above 85%) | 5 (Level 5: growth control rate is above 85%) | 5 (Level 5: growth control rate is above 85%) | 5 (Level 5: growth control rate is above 85%) | 5 (Level 5: growth control rate is above 85%) | – |
| CCOC(=O)C(O/N=C/c1cc(-n2c(=O)cc(C(F)(F)F)n(C)c2=O)c(F)cc1Cl)C1CC1 (stereo not drawn) [Compound 319] | – | – | – | – | – | – | Weeding effect in post-emergence stage, Abutilon theophrasti (Abutilon theophrasti; Dose 30 g/ha): 5 (Level 5: growth control rate is above 85%); Weeding effect in post-emergence stage, Eleusine indica (Eleusine indica; Dose 30 g/ha): 5 (Level 5: growth control rate is above 85%); Weeding effect in post-emergence stage, Alopecurus japonicus (Alopecurus japonicus; Dose 30 g/ha): 5 (Level 5: growth control rate is above 85%); Weeding effect in post-emergence stage, Digitaria sanguinalis (Digitaria sanguinalis; Dose 30 g/ha): 5 (Level 5: growth control rate is above 85%); Weeding effect in post-emergence stage, Setaria viridis (Setaria viridis; Dose 30 g/ha): 5 (Level 5: growth control rate is above 85%); Weeding effect in post-emergence stage, Echinochloa crusgalli (Echinochloa crusgalli; Dose 30 g/ha): 5 (Level 5: growth control rate is above 85%) |
| COC(=O)C(OC)O/N=C/c1cc(-n2c(=O)cc(C(F)(F)F)n(C)c2=O)c(F)cc1Cl (stereo not drawn) [Compound 321] | – | – | – | – | – | – | Weeding effect in post-emergence stage, Abutilon theophrasti (Abutilon theophrasti; Dose 120 g/ha): 5 (Level 5: growth control rate is above 85%); Weeding effect in post-emergence stage, Eleusine indica (Eleusine indica; Dose 120 g/ha): 5 (Level 5: growth control rate is above 85%); Weeding effect in post-emergence stage, Alopecurus japonicus (Alopecurus japonicus; Dose 120 g/ha): 5 (Level 5: growth control rate is above 85%); Weeding effect in post-emergence stage, Digitaria sanguinalis (Digitaria sanguinalis; Dose 120 g/ha): 5 (Level 5: growth control rate is above 85%); Weeding effect in post-emergence stage, Setaria viridis (Setaria viridis; Dose 120 g/ha): 5 (Level 5: growth control rate is above 85%); Weeding effect in post-emergence stage, Echinochloa crusgalli (Echinochloa crusgalli; Dose 120 g/ha): 5 (Level 5: growth control rate is above 85%) |
| CCOC(=O)C(OC)O/N=C/c1cc(-n2c(=O)cc(C(F)(F)F)n(C)c2=O)c(F)cc1Cl (stereo not drawn) [Compound 322] | – | – | – | – | – | – | Weeding effect in post-emergence stage, Abutilon theophrasti (Abutilon theophrasti; Dose 120 g/ha): 5 (Level 5: growth control rate is above 85%); Weeding effect in post-emergence stage, Eleusine indica (Eleusine indica; Dose 120 g/ha): 5 (Level 5: growth control rate is above 85%); Weeding effect in post-emergence stage, Alopecurus japonicus (Alopecurus japonicus; Dose 120 g/ha): 5 (Level 5: growth control rate is above 85%); Weeding effect in post-emergence stage, Digitaria sanguinalis (Digitaria sanguinalis; Dose 120 g/ha): 5 (Level 5: growth control rate is above 85%); Weeding effect in post-emergence stage, Setaria viridis (Setaria viridis; Dose 120 g/ha): 5 (Level 5: growth control rate is above 85%); Weeding effect in post-emergence stage, Echinochloa crusgalli (Echinochloa crusgalli; Dose 120 g/ha): 5 (Level 5: growth control rate is above 85%) |
| CCOC(O/N=C/c1cc(-n2c(=O)cc(C(F)(F)F)n(C)c2=O)c(F)cc1Cl)C(=O)OC (stereo not drawn) [Compound 331] | 5 (Level 5: growth control rate is above 85%) | 5 (Level 5: growth control rate is above 85%) | 5 (Level 5: growth control rate is above 85%) | 5 (Level 5: growth control rate is above 85%) | 5 (Level 5: growth control rate is above 85%) | 5 (Level 5: growth control rate is above 85%) | – |
| COCC(O/N=C/c1cc(-n2c(=O)cc(C(F)(F)F)n(C)c2=O)c(F)cc1Cl)C(=O)OC (stereo not drawn) [Compound 333] | 5 (Level 5: growth control rate is above 85%) | 5 (Level 5: growth control rate is above 85%) | 5 (Level 5: growth control rate is above 85%) | 5 (Level 5: growth control rate is above 85%) | 5 (Level 5: growth control rate is above 85%) | 5 (Level 5: growth control rate is above 85%) | – |
| COC(=O)C(O/N=C/c1cc(-n2c(=O)cc(C(F)(F)F)n(C)c2=O)c(F)cc1Cl)c1ccccc1 (stereo not drawn) [Compound 337] | 5 (Level 5: growth control rate is above 85%) | 5 (Level 5: growth control rate is above 85%) | 5 (Level 5: growth control rate is above 85%) | 5 (Level 5: growth control rate is above 85%) | 5 (Level 5: growth control rate is above 85%) | 5 (Level 5: growth control rate is above 85%) | – |
| COC(=O)C(C)O/N=C/c1cc(-n2c(=O)cc(C(F)(F)F)n(C)c2=O)c(F)cc1C(F)(F)F (stereo not drawn) [Compound 342] | 5 (Level 5: growth control rate is above 85%) | 5 (Level 5: growth control rate is above 85%) | 4 (Level 4: growth control rate is greater than or equal to 60% and less than 85%) | 5 (Level 5: growth control rate is above 85%) | 5 (Level 5: growth control rate is above 85%) | 5 (Level 5: growth control rate is above 85%) | – |
| COC(=O)C(C)O/N=C/c1cc(-n2c(=O)cc(C(F)(F)F)n(C)c2=O)c(F)cc1C#N (stereo not drawn) [Compound 344] | 5 (Level 5: growth control rate is above 85%) | 5 (Level 5: growth control rate is above 85%) | 5 (Level 5: growth control rate is above 85%) | 5 (Level 5: growth control rate is above 85%) | 5 (Level 5: growth control rate is above 85%) | 5 (Level 5: growth control rate is above 85%) | – |
| COC(=O)C(C)O/N=C/c1cc(-n2c(=O)cc(C(F)(F)F)n(C)c2=S)c(F)cc1Cl (stereo not drawn) [Compound 347] | – | – | – | – | – | – | Weeding effect in post-emergence stage, Abutilon theophrasti (Abutilon theophrasti; Dose 30 g/ha): 5 (Level 5: growth control rate is above 85%); Weeding effect in post-emergence stage, Eleusine indica (Eleusine indica; Dose 30 g/ha): 5 (Level 5: growth control rate is above 85%); Weeding effect in post-emergence stage, Alopecurus japonicus (Alopecurus japonicus; Dose 30 g/ha): 5 (Level 5: growth control rate is above 85%); Weeding effect in post-emergence stage, Digitaria sanguinalis (Digitaria sanguinalis; Dose 30 g/ha): 5 (Level 5: growth control rate is above 85%); Weeding effect in post-emergence stage, Setaria viridis (Setaria viridis; Dose 30 g/ha): 5 (Level 5: growth control rate is above 85%); Weeding effect in post-emergence stage, Echinochloa crusgalli (Echinochloa crusgalli; Dose 30 g/ha): 5 (Level 5: growth control rate is above 85%) |
